In patent US9890185B2, “Urea derivatives useful as kinase inhibitors” (Respivert Limited, priority 2013, dated 2018):
≈ marks a conversion by molar mass, not a printed value. Like-named read-outs stand apart in the source and are kept apart here.

Tests used:
[1] = test system: endotoxin (LPS)-induced uveitis; test: Endotoxin-induced uveitis in rats (in vivo assay vi); design: species or system Lewis rats; details: eyes of LPS-stimulated rats, topical, 1 mg/mL
Method: Male, Lewis rats (6-8 weeks old, Charles River UK Limited) are housed in cages of 3 at 19-21° C. with a 12 h light/dark cycle (07:00/19:00) and fed a standard diet of rodent chow and water ad libitum. […] Untreated rats are injected with PBS. […] Before administration, the solution or suspension to be administered is agitated for 5 minutes to ensure a uniform suspension. 6 hours after LPS dosing, animals are euthanized by overdose with pentobarbitone (i.v.). Following euthanasia, the right eye of each animal is enucleated and dissected into front (anterior) and back (posterior) sections around the lens. Each section is weighed and homogenised in 500 μL of sterile phosphate buffered saline followed by 20 minutes centrifugation at 12000 rpm at 4° C. The resulting supernatant is divided into 3 aliquots and stored at −80° C. until subsequent cytokine analysis by R&D DuoSet ELISA.

PBMCs = test: LPS-induced IL-8 release in PBMC cells (assay b); format: cell-based, human; details: Homo sapiens, PBMC; LPS-stimulated PBMCs; read-out: IC50 Values for Inhibition of Cytokine Release, PBMCs IL-8
Outline: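 Cytokines (TNFα, IL-8) in supernatants were quantified by sandwich ELISA after a 24 h challenge with 1 ng/mL E. coli LPS at 37° C, 5% CO2. Healthy-donor PBMCs had been exposed to compound for 2 h beforehand. IC50 values were fitted from the concentration-response curves.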

[2] = Solubility in fasted-state simulated colonic fluid (FaSSCoF); format: physicochemical; details: thermodynamic from solid, pH 6.5, 25° C.; for solubility thermodynamic at 24 h: 25 °C, pH 6.5, fassgf or other biorelevant
Method: The solubilities of compounds of the invention in FaSSCoF at pH 6.5 are determined using a modification of a previously-reported procedure (Vertzoni, M., et al. Pharm. Res. 2010, 27, 2187-2196). In place of the bile salt extract employed in the original procedure (which extract is no longer available), the modified procedure uses a mixture of sodium taurochlorate (0.15 g), glycocholic acid (0.15 g), ursodeoxycholic acid (0.05 g), cholic acid (0.05 g), and glycodeoxycholic acid (0.05 g). These five bile acids are ground together with a mortar and pestle to produce a fine white powder that is incorporated into the FaSSCoF, as outlined below.
Tris(hydroxymethyl)aminomethane (Tris; 0.275 g) and maleic acid (0.44 g) are dissolved in water (35 mL) to give a solution whose pH is adjusted to 6.5 by treatment with 0.5M NaOH (ca. 12 mL). The solution is then made up to 50 mL with water. A portion of this Tris/maleate buffer solution (ca. 25 mL) is added to a 0.5 L round-bottomed flask, before being treated with 0.00565 g of the bile acid mixture described above. Solutions of phosphatidylcholine (0.0111 g) in DCM (0.15 mL) and palmitic acid (0.0013 g) in DCM (0.15 mL) are added, then the organic solvent is evaporated off under reduced pressure at 40° C. until a clear solution, with no perceptible DCM odour, is achieved. The volume of the evaporated solution is adjusted to 50 mL by addition of the remainder of Tris/maleate buffer, then BSA (0.115 g) is added, before being dissolved by gentle agitation.
Test compounds are suspended in the pH 6.5 FaSSCoF medium to give a maximum final concentration of ca. 6 mg/mL. The suspensions are equilibrated at 25° C. for 24 h, before being filtered through a glass fibre C filter. The filtrates are then diluted as appropriate for injection and quantification by HPLC with reference to a standard. Different volumes of the standard, diluted and undiluted sample solutions are injected and the solubilities are calculated using the peak areas determined by integration of the peak found at the same retention time as the principal peak in the standard injection.

SMILES	Cell counts [1]	IC50 (PBMCs)	solubility thermodynamic at 24 h ([2]; Run 1, read-out: pH 6.5 FaSSCoF Solubility Run 1)	solubility thermodynamic at 24 h ([2]; Run 2, read-out: pH 6.5 FaSSCoF Solubility Run 2)	solubility at 24 h ([2]; fassgf or other biorelevant, read-out: Solubility in the FaSSCoF medium)
C[C@@H]1C[C@H]2[C@@H]3CCC4=CC(=O)C=C[C@]4(C)[C@@]3(F)[C@@H](O)C[C@]2(C)[C@@]1(O)C(=O)CO [Dexamethasone, dexamethasone, reference compound]	30.1 ± 6.4	–	–	–	–
COc1cc(Nc2cc(Oc3ccc(NC(=O)Nc4cc(C(C)(C)C)cc([S+](C)[O-])c4OC)c4ccccc34)ccn2)cc(C(=O)NCCN2CCN(C)CC2)c1 (centres unmarked) [Example 84, 3-((4-((4-(3-(5-(tert-Butyl)-2-methoxy-3-(methylsulfinyl)phenyl)ureido)naphthalen-1-yl)oxy)pyridin-2-yl)amino)-5-methoxy-N-(2-(4-methylpiperazin-1-yl)ethyl)benzamide]	–	1.8 nM	15 µg/mL (≈ 18.9 µM)	16 µg/mL (≈ 20.2 µM)	> 10 µg/mL
